Data as given in patent publication US20100041696A1, “Compounds” (priority 2006, published 2010).
Where a name gives a salt, the structure may show the parent alone.

molecular target: T1, SCD (stearoyl-CoA desaturase), SCD-containing rat microsomes (Rattus norvegicus, UniProt P07308); experiment: in vitro assay for SCD activity based on production of [3H]H2O from [9,10-3H] stearoyl Coenzyme A; format: biochemical; conditions: SCD-containing rat microsomes (2 μg protein), substrate [9,10-3H] stearoyl Coenzyme A 1 μM, 5 minutes preincubation, 6 minutes incubation; read-out: average pIC50 value, in vitro assay for SCD activity (converted)
T1 construct: SCD-containing rat microsomes (2 μg protein); from tissue
T1 sequence (P07308 1-358): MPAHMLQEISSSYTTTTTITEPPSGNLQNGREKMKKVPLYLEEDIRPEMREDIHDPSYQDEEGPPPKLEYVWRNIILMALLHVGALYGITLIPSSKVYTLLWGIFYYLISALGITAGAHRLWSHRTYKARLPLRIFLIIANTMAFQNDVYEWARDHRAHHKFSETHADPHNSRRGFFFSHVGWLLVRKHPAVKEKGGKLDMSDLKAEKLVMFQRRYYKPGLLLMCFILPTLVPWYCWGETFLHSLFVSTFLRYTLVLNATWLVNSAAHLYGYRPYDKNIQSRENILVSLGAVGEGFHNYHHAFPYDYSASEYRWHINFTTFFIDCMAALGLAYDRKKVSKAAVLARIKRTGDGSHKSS
Description: The compounds of the present invention may be analysed in vitro for SCD activity using an assay based on the production of [^3H]H2O, which is released during the enzyme-catalyzed generation of the monounsaturated fatty acyl CoA product. The assay is performed in a 96-well filtration plates. The titrated substrate used in the assay is the [9,10-^3H] stearoyl Coenzyme A. After incubation for 6 minutes of SCD-containing rat microsomes (2 μg protein) and substrate (1 μM), the labelled fatty acid acyl-CoA species and microsomes are absorbed with charcoal and separated from [^3H]H2O by centrifugation. The formation of [^3H]H2O is used as a measure of SCD activity. Compounds at concentrations starting at 10 μM to 0.1 nM or vehicle (DMSO) are preincubated for 5 minutes with the microsomes before addition of the substrate. The concentration-responses are fitted with sigmoidal curves to obtain IC50 values.

IC50, > 10 µM:
CC(C)COc1ccc(Cl)cc1Cn1cc(NC(=O)c2ccc3c(c2)CCN(C(=O)OC(C)(C)C)C3)cn1 [1,1-dimethylethyl 6-({[1-({5-chloro-2-[(2-methylpropyl)oxy]phenyl}methyl)-1H-pyrazol-4-yl]amino}carbonyl)-3,4-dihydro-2(1H)-isoquinolinecarboxylate]
CC(C)c1ccc(Cn2cc(NC(=O)c3ccc4c(c3)CCN(C(=O)OC(C)(C)C)C4)cn2)cc1 [1,1-dimethylethyl 6-{[(1-{[4-(1-methylethyl)phenyl]methyl}-1H-pyrazol-4-yl)amino]carbonyl}-3,4-dihydro-2(1H)-isoquinolinecarboxylate]
CC(C)c1nn(Cc2ccc(Cl)c(Cl)c2)cc1C(=O)Nc1ccc2c(c1)CCNC2 [1-[(3,4-dichlorophenyl)methyl]-3-(1-methylethyl)-N-(1,2,3,4-tetrahydro-6-isoquinolinyl)-1H-pyrazole-4-carboxamide hydrochloride]
CC(C)c1c(C(=O)Nc2ccc3c(c2)CCNC3)cnn1Cc1ccc(Cl)c(Cl)c1 [1-[(3,4-dichlorophenyl)methyl]-5-(1-methylethyl)-N-(1,2,3,4-tetrahydro-6-isoquinolinyl)-1H-pyrazole-4-carboxamide hydrochloride]
O=C(Nc1ccc2c(c1)CCNC2)c1cnn(Cc2ccc(C(F)(F)F)cc2)c1 [N-(1,2,3,4-tetrahydro-6-isoquinolinyl)-1-{[4-(trifluoromethyl)phenyl]methyl}-1H-pyrazole-4-carboxamide hydrochloride]
CC(C)c1ccc(Cn2cc(NC(=O)c3ccc4c(c3)CCNC4)cn2)cc1 [N-(1-{[4-(1-methylethyl)phenyl]methyl}-1H-pyrazol-4-yl)-1,2,3,4-tetrahydro-6-isoquinolinecarboxamide hydrochloride]
CC(C)COc1ccc(Cl)cc1Cn1cc(NC(=O)c2ccc3c(c2)CCNC3)cn1 [N-[1-({5-chloro-2-[(2-methylpropyl)oxy]phenyl}methyl)-1H-pyrazol-4-yl]-1,2,3,4-tetrahydro-6-isoquinolinecarboxamide hydrochloride]

IC50, 3.16 to 10 µM:
O=C(Nc1ccc2c(c1)CCNC2)c1cnn(Cc2ccc(Cl)cc2)c1 [1-[(4-chlorophenyl)methyl]-N-(1,2,3,4-tetrahydro-6-isoquinolinyl)-1H-pyrazole-4-carboxamide hydrochloride]
O=C(Nc1cnn(Cc2ccccc2Cl)c1)c1ccc2c(c1)CCNC2 [Example 8, N-{1-[(2-chlorophenyl)methyl]-1H-pyrazol-4-yl}-1,2,3,4-tetrahydro-6-isoquinolinecarboxamide]
Cc1ccc(Cn2cc(NC(=O)c3ccc4c(c3)CCNC4)cn2)cc1 [Example 14, N-{1-[(4-methylphenyl)methyl]-1H-pyrazol-4-yl}-1,2,3,4-tetrahydro-6-isoquinolinecarboxamide]
O=C(Nc1cnn(Cc2ccccc2C(F)(F)F)c1)c1ccc2c(c1)CCNC2 [N-(1-{[2-(trifluoromethyl)phenyl]methyl}-1H-pyrazol-4-yl)-1,2,3,4-tetrahydro-6-isoquinolinecarboxamide hydrochloride]
O=C(Nc1cnn(COc2ccc(Cl)cc2)c1)c1ccc2c(c1)CCNC2 [N-(1-{[(4-chlorophenyl)oxy]methyl}-1H-pyrazol-4-yl)-1,2,3,4-tetrahydro-6-isoquinolinecarboxamide hydrochloride]
O=C(Nc1cnn(Cc2ccccc2)c1)c1ccc2c(c1)CCNC2 [N-[1-(phenylmethyl)-1H-pyrazol-4-yl]-1,2,3,4-tetrahydro-6-isoquinolinecarboxamide hydrochloride]
N#Cc1cccc(Cn2cc(NC(=O)c3ccc4c(c3)CCNC4)cn2)c1 [N-{1-[(3-cyanophenyl)methyl]-1H-pyrazol-4-yl}-1,2,3,4-tetrahydro-6-isoquinolinecarboxamide hydrochloride]
